Reference: patent US20230167118A1, “DEGRADATION OF BRUTON'S TYROSINE KINASE (BTK) BY CONJUGATION OF BTK INIDBITORS WITH E3 LIGASE LIGAND AND METHODS OF USE” (BEIGENE, LTD., priority 2020, published 2023)
Where a name gives a salt, the structure may show the parent alone.

Experiments:
BTK = biological target: T1, BTK (Homo sapiens, UniProt Q06187); assay: Cell Degradation: BTK degradation in TMD-8 cells, HTRF assay; assay type: cell-based; conditions: 6 h treatment, IC50 (DC50) of BTK degradation
T1 construct: High control=Cell group with added DMSO and without compound, indicating microplate readings without BTK degradation; endogenous in cells; host or cells: TMD-8 cells
T1 sequence (Q06187 whole entry): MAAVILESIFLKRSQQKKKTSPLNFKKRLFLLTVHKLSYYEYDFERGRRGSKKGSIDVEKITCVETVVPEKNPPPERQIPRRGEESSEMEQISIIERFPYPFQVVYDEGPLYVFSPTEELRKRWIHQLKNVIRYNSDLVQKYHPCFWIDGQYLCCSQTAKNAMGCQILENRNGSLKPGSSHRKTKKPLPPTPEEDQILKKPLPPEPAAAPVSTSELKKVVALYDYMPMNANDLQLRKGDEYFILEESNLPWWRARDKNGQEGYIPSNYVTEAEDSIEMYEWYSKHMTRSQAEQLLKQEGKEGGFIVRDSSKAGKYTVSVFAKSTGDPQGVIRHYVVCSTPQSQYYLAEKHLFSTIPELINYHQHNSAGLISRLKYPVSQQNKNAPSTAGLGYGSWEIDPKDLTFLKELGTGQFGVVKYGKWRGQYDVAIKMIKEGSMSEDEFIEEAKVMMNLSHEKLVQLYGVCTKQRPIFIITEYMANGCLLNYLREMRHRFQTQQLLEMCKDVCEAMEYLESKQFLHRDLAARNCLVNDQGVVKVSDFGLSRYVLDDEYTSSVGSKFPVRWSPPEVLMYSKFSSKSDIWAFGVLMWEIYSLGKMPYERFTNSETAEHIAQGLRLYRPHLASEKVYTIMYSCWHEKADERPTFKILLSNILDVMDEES
Description: TMD-8 cells are treated with compounds in 0.2% DMSO, dilution is done according to the following protocol: (1) make 500× stock solution in DMSO from 1 mM by 6-fold dilution, total 8 doses were included; (2) make 2× solution in cell culture medium by transferring 0.5 μl 500× stock solution into 125 μl medium; (3) 15 μl of 2× solution is added to cells and incubate for 6 h.
After 6 h treatment, add […] 4×lysis buffer to each well; seal the plate and incubate 30 min at room temperature on a plate shaker; Once the cells are lysed, 16 μL of cell lysate are transferred to a PE 384-well HTRF detection plate; 4 μL of pre-mixed HTRF antibodies are added to each well; Cover the plate with a plate sealer, spin 1000 rpm for 1 min, Incubate overnight at room temperature; Read on BMG PheraStar with HTRF protocol (337 nm-665 nm-620 nm).
The inhibition (degradation) percentage of the compound was calculated by the following equation: Inhibition percentage of Compound=100-100× (Signal-low control)/(High control-low control), wherein signal=each test compound group
Dmax is the maximum percentage of inhibition (degradation).
The IC50 (DC50) value of a compound can be obtained by fitting the following equation
Y=Bottom+(TOP-Bottom)/(1+((IC50/X)^hillslope))
(§1) Wherein, X and Y are known values, and IC50, Hillslope, Top and Bottom are the parameters obtained by fitting with software. Y is the inhibition percentage (calculated from the equation), X is the concentration of the compound; IC50 is the concentration of the compound when the 50% inhibition is reached. The smaller the IC50 value is, the stronger the inhibitory ability of the compound is. Vice versa, the higher the IC50 value is, the weaker the ability the inhibitory ability of the compound is; Hillslope represents the slope of the fitted curve, generally around 1 *; Bottom represents the minimum value of the curve obtained by data fitting, which is generally 0%±20%; Top represents the maximum value of the curve obtained by data fitting, which is generally 100%±20%. The experimental data were fitted by calculating and analyzing with Dotmatics data analysis software.

HEK-293 cells = assay: HEK-293 Cytotoxicity Assay (CellTiter-Glo); assay type: cell-based; conditions: Homo sapiens, HEK293, 72 h incubation, CellTiter-Glo luminescence
Description: HEK-293 Cytotoxicity Assay
HEK-293 cells are treated with compounds diluted in 0.2% DMSO, dilution is done according to the following protocol: (1) make 500× stock solution in DMSO from 5 mM by 4-fold dilution, total 8 doses were included; (2) make 2× solution in cell culture medium by transferring 0.5 ul 500× stock solution into 125 ul medium; (3) 50 ul of 2× solution is added to cells and incubate for 72 h.
Add 25 μl of the CellTiter-Glo®Reagent [I (Promega)—Cat No. G7572] to each well in the 96-well plate. Mix contents for 2 minutes on an orbital shaker to induce cell lysis. Allow the plate to incubate at room temperature for 10 minutes to stabilize luminescent signal. Record luminescence on BMG PheraStar with luminescence protocol.
as §1, with “The IC50 value of a compound can be obtained by fitting the following equation. Y=Bottom+(TOP−Bottom)/(1+((IC50/X)^hillslope)) Wherein,” for “Wherein,”, “1*;” for “1 *;”

| Structure (SMILES) | DC50 (BTK) [nM] | IC50 (HEK-293 cells) [nM] |
| --- | --- | --- |
| Cc1cc(-c2ncnc3[nH]c(-c4ccc(N5CCN(CCC6CCN(c7ccc(N8CCC(=O)NC8=O)c(Cl)c7)CC6)CC5)nc4)cc23)ccc1[C@@H](C)NC(=O)c1nc(C(C)(C)C)no1 [Example 26, (R)-3-(tert-butyl)-N-(1-(4-(6-(6-(4-(2-(1-(3-chloro-4-(2,4-dioxotetrahydropyrimidin-1(2H)-yl)phenyl)piperidin-4-yl)ethyl)piperazin-1-yl)pyridin-3-yl)-7H-pyrrolo[2,3-d]pyrimidin-4-yl)-2-methylphenyl)ethyl)-1,2,4-oxadiazole-5-carboxamide] | 4.7 | > 10000 |
| COc1ccc(C(=O)N2CCC(CN3CCC(Oc4ccc(-c5cc6c(-c7ccc(CNC(=O)c8nc(C(C)(C)C)no8)c(C)c7)ncnc6[nH]5)cc4)CC3)CC2)cc1N1CCC(=O)NC1=O [Example 27, 3-(tert-butyl)-N-(4-(6-(4-((1-((1-(3-(2,4-dioxotetrahydropyrimidin-1(2H)-yl)-4-methoxybenzoyl)piperidin-4-yl)methyl)piperidin-4-yl)oxy)phenyl)-7H-pyrrolo[2,3-d]pyrimidin-4-yl)-2-methylbenzyl)-1,2,4-oxadiazole-5-carboxamide] | 1.9 | > 10000 |
| Cc1c(NC(=O)c2ccc(C(C)(C)O)cc2F)cc(F)cc1-c1ncnc2[nH]c(-c3ccc(C4CCN(CC5CCN(c6ccc(N7CCC(=O)NC7=O)cc6)CC5)CC4)cc3)cc12 [Example 28, N-(3-(6-(4-(1-((1-(4-(2,4-dioxotetrahydropyrimidin-1(2H)-yl)phenyl)piperidin-4-yl)methyl)piperidin-4-yl)phenyl)-7H-pyrrolo[2,3-d]pyrimidin-4-yl)-5-fluoro-2-methylphenyl)-2-fluoro-4-(2-hydroxypropan-2-yl)benzamide] | 1.5 | 4240 |
| C=C(C)c1ccc(C(=O)Nc2cc(F)cc(-c3ncnc4[nH]c(-c5ccc(C6CCN(CC7CCN(c8ccc(N9CCC(=O)NC9=O)cc8)CC7)CC6)cc5)cc34)c2C)c(F)c1 [Example 29, N-(3-(6-(4-(1-((1-(4-(2,4-dioxotetrahydropyrimidin-1(2H)-yl)phenyl)piperidin-4-yl)methyl)piperidin-4-yl)phenyl)-7H-pyrrolo[2,3-d]pyrimidin-4-yl)-5-fluoro-2-methylphenyl)-2-fluoro-4-(prop-1-en-2-yl)benzamide] | 10.2 | > 10000 |
| C[C@@H](NC(=O)c1nc(C(C)(C)C)no1)c1ccc(-c2ncnc3[nH]c(-c4ccc(N5CCN(CC6CCN(c7ccc(N8CCC(=O)NC8=O)cc7)CC6)CC5)nc4)cc23)cc1F [Example 33, (R)-3-(tert-butyl)-N-(1-(4-(6-(6-(4-((1-(4-(2,4-dioxotetrahydropyrimidin-1(2H)-yl)phenyl)piperidin-4-yl)methyl)piperazin-1-yl)pyridin-3-yl)-7H-pyrrolo[2,3-d]pyrimidin-4-yl)-2-fluorophenyl)ethyl)-1,2,4-oxadiazole-5-carboxamide] | 1.7 | > 10000 |
| Cc1cc(CNC(=O)c2ccc(C(C)(C)O)cc2F)c(F)cc1-c1ncnc2[nH]c(-c3ccc(C4CCN(CC5CCN(c6ccc(N7CCC(=O)NC7=O)cc6)CC5)CC4)cc3)cc12 [Example 36, N-(4-(6-(4-(1-((1-(4-(2,4-dioxotetrahydropyrimidin-1(2H)-yl)phenyl)piperidin-4-yl)methyl)piperidin-4-yl)phenyl)-7H-pyrrolo[2,3-d]pyrimidin-4-yl)-2-fluoro-5-methylbenzyl)-2-fluoro-4-(2-hydroxypropan-2-yl)benzamide] | 1.5 | > 10000 |

Continued, in another order:

| DC50 (BTK) [nM] | Structure (SMILES) | IC50 (HEK-293 cells) [nM] |
| --- | --- | --- |
| 1.7 | Cc1cc(-c2ncnc3[nH]c(-c4ccc(N5CCN(CC6CCN(c7ccc(N8CCC(=O)NC8=O)cc7)CC6)CC5)cc4)cc23)ccc1CNC(=O)c1noc(C(C)(C)C)n1 [Example 30, 5-(tert-butyl)-N-(4-(6-(4-(4-((1-(4-(2,4-dioxotetrahydropyrimidin-1(2H)-yl)phenyl)piperidin-4-yl)methyl)piperazin-1-yl)phenyl)-7H-pyrrolo[2,3-d]pyrimidin-4-yl)-2-methylbenzyl)-1,2,4-oxadiazole-3-carboxamide] | > 10000 |
| 1.5 | C[C@@H](NC(=O)c1noc(C(C)(C)C)n1)c1ccc(-c2ncnc3[nH]c(-c4ccc(N5CCN(CC6CCN(c7ccc(N8CCC(=O)NC8=O)cc7)CC6)CC5)cc4)cc23)cc1F [Example 31, (R)-5-(tert-butyl)-N-(1-(4-(6-(4-(4-((1-(4-(2,4-dioxotetrahydropyrimidin-1(2H)-yl)phenyl)piperidin-4-yl)methyl)piperazin-1-yl)phenyl)-7H-pyrrolo[2,3-d]pyrimidin-4-yl)-2-fluorophenyl)ethyl)-1,2,4-oxadiazole-3-carboxamide] | > 10000 |
| 1.7 | CC(C)(C)c1noc(C(=O)NCc2ccc(-c3ncnc4[nH]c(-c5ccc(N6CCN(CC7CCN(c8ccc(N9CCC(=O)NC9=O)cc8)CC7)CC6)cc5)cc34)cc2F)n1 [Example 32, 3-(tert-butyl)-N-(4-(6-(4-(4-((1-(4-(2,4-dioxotetrahydropyrimidin-1(2H)-yl)phenyl)piperidin-4-yl)methyl)piperazin-1-yl)phenyl)-7H-pyrrolo[2,3-d]pyrimidin-4-yl)-2-fluorobenzyl)-1,2,4-oxadiazole-5-carboxamide] | > 10000 |
| 1.2 | C[C@@H](NC(=O)c1noc(C(C)(C)C)n1)c1ccc(-c2ncnc3[nH]c(-c4ccc(N5CCN(CC6CCN(c7ccc(N8CCC(=O)NC8=O)cc7)CC6)CC5)nc4)cc23)cc1F [Example 34, (R)-5-(tert-butyl)-N-(1-(4-(6-(6-(4-((1-(4-(2,4-dioxotetrahydropyrimidin-1(2H)-yl)phenyl)piperidin-4-yl)methyl)piperazin-1-yl)pyridin-3-yl)-7H-pyrrolo[2,3-d]pyrimidin-4-yl)-2-fluorophenyl)ethyl)-1,2,4-oxadiazole-3-carboxamide] | > 10000 |
| 0.63 | Cc1cc(-c2ncnc3[nH]c(-c4ccc(N5CCN(CC6CCN(c7ccc(N8CCC(=O)NC8=O)cc7)CC6)CC5)cc4)cc23)ccc1CNC(=O)c1cnn(C(C)(C)C)c1 [Example 35, 1-(tert-butyl)-N-(4-(6-(4-(4-((1-(4-(2,4-dioxotetrahydropyrimidin-1(2H)-yl)phenyl)piperidin-4-yl)methyl)piperazin-1-yl)phenyl)-7H-pyrrolo[2,3-d]pyrimidin-4-yl)-2-methylbenzyl)-1H-pyrazole-4-carboxamide] | > 10000 |
| 1.2 | Cc1cc(-c2ncnc3[nH]c(-c4ccc(N5CCN(CC6CCN(c7ccc(N8CCC(=O)NC8=O)cc7)CC6)CC5)cc4)cc23)ccc1CNC(=O)c1cn(C(C)(C)C)nn1 [Example 37, 1-(tert-butyl)-N-(4-(6-(4-(4-((1-(4-(2,4-dioxotetrahydropyrimidin-1(2H)-yl)phenyl)piperidin-4-yl)methyl)piperazin-1-yl)phenyl)-7H-pyrrolo[2,3-d]pyrimidin-4-yl)-2-methylbenzyl)-1H-1,2,3-triazole-4-carboxamide] | > 10000 |
| 2.1 | Cc1cc(-c2ncnc3[nH]c(-c4ccc(N5CCN(CC6CCN(c7ccc(N8CCC(=O)NC8=O)cc7)CC6)CC5)c(F)c4)cc23)ccc1[C@@H](C)NC(=O)c1nc(C(C)(C)C)no1 [Example 38, (R)-3-(tert-butyl)-N-(1-(4-(6-(4-(4-((1-(4-(2,4-dioxotetrahydropyrimidin-1(2H)-yl)phenyl)piperidin-4-yl)methyl)piperazin-1-yl)-3-fluorophenyl)-7H-pyrrolo[2,3-d]pyrimidin-4-yl)-2-methylphenyl)ethyl)-1,2,4-oxadiazole-5-carboxamide, Formate] | > 10000 |
